The source of these data is patent EP3689361A1, “APPLICATION OF CRANBERRY OR EXTRACT THEREOF IN PREPARATION OF MEDICATIONS OR HEALTH-CARE FOOD FOR TREATING, DELAYING OR ALLEVIATING AGES-RELATED DISEASES” (BY-Health Co., Ltd., priority 2018, dated 2020).

The subject of the assay is AGEs production (BSA + Methylglyoxal). Put plainly: Inhibition of AGEs production: co-incubation with BSA and MGO, fluorescence read-out. It is filed as biochemical. Particulars: Compound concentration 1mg/mL. On the procedure: Bovine serum albumin (BSA) can interact with Methylglyoxal (MGO) to produce AGEs. The compound to be tested was co-incubated with BSA and MGO, and the level of the AGEs production was determined through detecting change of fluorescence value in the system, to thereby evaluate whether or not the compound had inhibitory effect on the AGEs production. […]
With reference to the method of Test Example 1, the inhibitory effect of the AGEs inhibitory compositions of Examples 1-3 on AGEs production was examined. The test results were as follows: Table 13 Inhibitory effect of the AGEs inhibitory compositions on AGEs production

Molecules are shown by their SMILES.

For the compound `N=C(N)NN` [Aminoguanidine], the “AGEs production inhibition rate %” value stood at 101.1% (Table 1, bilberry extracts with different anthocyanin contents) and 101.1% (Table 9, 7 samples). Take `Cc1ncc(CO)c(CO)c1O.Cl` [Vitamin B6]: where the note is “Table 9, 7 samples”, the “AGEs production inhibition rate %” value was 77.6%. For the compound `Cc1cc2nc3c(=O)[nH]c(=O)nc-3n(C[C@H](O)[C@H](O)[C@H](O)CO)c2cc1C` [Vitamin B2], the “AGEs production inhibition rate %” value (Table 9, 7 samples) stood at 94.3%. On the same count and under the same terms, then `Cc1ncc(C[n+]2csc(CCO)c2C)c(N)n1` [Vitamin B1], with 87.3%.
